In patent US20160002204A1 (Board of Regents, The University of Texas System, priority 2014, published 2016) one finds IC50 and EC50 data, which are given here for 16 compounds.

Experiment [1] deals with T1, GLS1 (purified recombinant human GAC) (Homo sapiens, UniProt O94925).
T1 sequence (O94925 55-598 isoform O94925-3 limits assumed): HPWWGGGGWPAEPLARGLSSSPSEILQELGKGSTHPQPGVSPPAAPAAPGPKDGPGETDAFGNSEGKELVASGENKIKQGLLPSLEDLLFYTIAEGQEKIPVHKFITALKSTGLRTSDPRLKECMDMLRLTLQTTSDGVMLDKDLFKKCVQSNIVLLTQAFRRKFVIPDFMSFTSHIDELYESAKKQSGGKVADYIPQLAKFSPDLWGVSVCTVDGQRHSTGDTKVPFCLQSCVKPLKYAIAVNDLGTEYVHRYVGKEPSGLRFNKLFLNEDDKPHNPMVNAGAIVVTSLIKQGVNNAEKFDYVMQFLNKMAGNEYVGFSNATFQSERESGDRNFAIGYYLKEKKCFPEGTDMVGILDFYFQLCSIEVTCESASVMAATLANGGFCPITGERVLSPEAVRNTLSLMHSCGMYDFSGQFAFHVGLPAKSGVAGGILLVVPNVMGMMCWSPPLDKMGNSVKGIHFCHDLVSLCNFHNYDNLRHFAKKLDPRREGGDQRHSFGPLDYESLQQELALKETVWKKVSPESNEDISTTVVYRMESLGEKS
The experiment can be described thus: GLS1 enzymatic activity assay (dual-coupled, Amplex UltraRed/resorufin). It is filed as biochemical. An outline of the steps: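 In this coupled fluorometric format, phosphate-activated GAC (2 nM, 50 mM phosphate) is pre-exposed to compound for 10 min before 1 mM glutamine addition. Product is tracked as resorufin (530/590 nm) over time or at 20 min, and potency is derived by logistic fitting.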

The subject of another experiment is A549 cells. The experiment can be described thus: A549 proliferation (viability) assay, Cell Titer Fluor, 72 hours. It is filed as cell-based. As to conditions: Homo sapiens. An outline of the steps:
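A549 cells in RPMI 1640 with 10% dialyzed FBS were seeded at 1000 cells/well, grown 24 h, then exposed to compound (0.5% DMSO final) for 72 h at 37 °C, 5% CO2. Viability was read by Cell Titer Fluor fluorescence; EC50 from four-parameter logistic fit.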

As usually defined, the IC50 is the point on the concentration scale where inhibition reaches its midpoint. For orientation: EC50 means the concentration at which the effect is half-maximal. Read a high EC50 as a need for much substance. Consider `O=C(CN1CCCC(CO)C1)Nc1ccn(CCC(F)Cn2cc(C(=O)NCc3cccc(OC(F)(F)F)c3)nn2)c(=O)c1` (centres unmarked) [Example 257, 1-[2-fluoro-4-(4-{2-[3-(hydroxymethyl)piperidin-1-yl]acetamido}-2-oxo-1,2-dihydropyridin-1-yl)butyl]-N-{[3-(trifluoromethoxy)phenyl]methyl}-1H-1,2,3-triazole-4-carboxamide], for which the IC50 in experiment [1] is under 0.1 µM. The compound also showed an EC50 in the experiment on A549 cells of 0.5 to 5 µM.
The matching figures for `O=C(CC1CCCCC1)Nc1ccn(CCC(F)Cn2cc(C(=O)NCc3cc(C(F)(F)F)ccn3)nn2)c(=O)c1F` (centres unmarked) [Example 258, 1-{4-[4-(2-cyclohexylacetamido)-3-fluoro-2-oxo-1,2-dihydropyridin-1-yl]-2-fluorobutyl}-N-{[4-(trifluoromethyl)pyridin-2-yl]methyl}-1H-1,2,3-triazole-4-carboxamide]: under 0.1 µM and under 0.1 µM.
The matching figures for `O=C(CC1CCCCC1)Nc1ccn(CCC(F)Cn2cc(C(=O)NCc3cncc(C(F)(F)F)c3)nn2)c(=O)c1F` (centres unmarked) [Example 259, 1-{4-[4-(2-cyclohexylacetamido)-3-fluoro-2-oxo-1,2-dihydropyridin-1-yl]-2-fluorobutyl}-N-{[5-(trifluoromethyl)pyridin-3-yl]methyl}-1H-1,2,3-triazole-4-carboxamide]: under 0.1 µM and under 0.1 µM.
In the case of `O=C(CC1CCCCC1)Nc1ccn(CCC(F)Cn2cc(C(=O)NCc3ccc(C(F)(F)F)nc3)nn2)c(=O)c1F` (centres unmarked) [Example 260, 1-{4-[4-(2-cyclohexylacetamido)-3-fluoro-2-oxo-1,2-dihydropyridin-1-yl]-2-fluorobutyl}-N-{[6-(trifluoromethyl)pyridin-3-yl]methyl}-1H-1,2,3-triazole-4-carboxamide], the IC50 in experiment [1] was under 0.1 µM. This compound returned an EC50 with A549 cells of under 0.1 µM.
On to `O=C(CC1CCCCC1)Nc1ccn(CCC(F)Cn2cc(C(=O)NCc3ccc(C(F)(F)F)cn3)nn2)c(=O)c1F` (centres unmarked) [Example 261, 1-{4-[4-(2-cyclohexylacetamido)-3-fluoro-2-oxo-1,2-dihydropyridin-1-yl]-2-fluorobutyl}-N-{[5-(trifluoromethyl)pyridin-2-yl]methyl}-1H-1,2,3-triazole-4-carboxamide], for which the IC50 in experiment [1] is under 0.1 µM. This compound returned an EC50 with A549 cells of under 0.1 µM.
As to `O=C(CC1CCCCC1)Nc1ccn(CCC(F)Cn2cc(C(=O)NCc3cccc(C(F)(F)F)n3)nn2)c(=O)c1F` (centres unmarked) [Example 262, 1-{4-[4-(2-cyclohexylacetamido)-3-fluoro-2-oxo-1,2-dihydropyridin-1-yl]-2-fluorobutyl}-N-{[6-(trifluoromethyl)pyridin-2-yl]methyl}-1H-1,2,3-triazole-4-carboxamide], the IC50 in experiment [1] was under 0.1 µM. For the same compound, in the experiment with A549 cells, the concentration giving a half-maximal response (EC50) is under 0.1 µM.
With `O=C(Cc1ccccc1)Nc1cnn(CCC(F)Cn2cc(C(=O)NCc3cccc(OC(F)(F)F)c3)nn2)c(=O)c1` (centres unmarked) [Example 263, 1-{2-fluoro-4-[6-oxo-4-(2-phenylacetamido)-1,6-dihydropyridazin-1-yl]butyl}-N-{[3-(trifluoromethoxy)phenyl]methyl}-1H-1,2,3-triazole-4-carboxamide], the IC50 in experiment [1] is under 0.1 µM. This compound also gave a concentration giving a half-maximal response (EC50) in the experiment on A549 cells of 0.1 to 0.5 µM.
As for `O=C(CC1CCCCC1)Nc1ccn(CCC(F)Cn2cc(C(=O)NCc3cccc(C(F)(F)F)c3)nn2)c(=O)c1F` (centres unmarked) [Example 264, 1-{4-[4-(2-cyclohexylacetamido)-3-fluoro-2-oxo-1,2-dihydropyridin-1-yl]-2-fluorobutyl}-N-{[3-(trifluoromethyl)phenyl]methyl}-1H-1,2,3-triazole-4-carboxamide], the IC50 in experiment [1] was under 0.1 µM. The same compound yielded an EC50 with A549 cells of under 0.1 µM.
For the compound `O=C(CC1CCCCC1)Nc1ccn(CCC(F)Cn2cc(C(=O)NCc3cc(Cl)ccc3F)nn2)c(=O)c1F` (centres unmarked) [Example 265, N-[(5-chloro-2-fluorophenyl)methyl]-1-{4-[4-(2-cyclohexylacetamido)-3-fluoro-2-oxo-1,2-dihydropyridin-1-yl]-2-fluorobutyl}-1H-1,2,3-triazole-4-carboxamide], the IC50 in experiment [1] was under 0.1 µM. Moreover, the EC50 with A549 cells is under 0.1 µM.
Consider `Cc1ccc(CNC(=O)c2cn(CC(F)CCn3ccc(NC(=O)CC4CCCCC4)c(F)c3=O)nn2)cn1` (centres unmarked) [Example 266, 1-{4-[4-(2-cyclohexylacetamido)-3-fluoro-2-oxo-1,2-dihydropyridin-1-yl]-2-fluorobutyl}-N-[(6-methylpyridin-3-yl)methyl]-1H-1,2,3-triazole-4-carboxamide], for which, in experiment [1], the IC50 was under 0.1 µM. The same compound returned an EC50 in the experiment with A549 cells of under 0.1 µM.
`O=C(CC1CCCCC1)Nc1ccn(CCC(F)Cn2cc(C(=O)NCc3ccccn3)nn2)c(=O)c1F` (centres unmarked) [Example 267, 1-{4-[4-(2-cyclohexylacetamido)-3-fluoro-2-oxo-1,2-dihydropyridin-1-yl]-2-fluorobutyl}-N-(pyridin-2-ylmethyl)-1H-1,2,3-triazole-4-carboxamide]: the IC50 in experiment [1] was under 0.1 µM. This compound also yielded a half-maximal effective concentration (EC50) in the experiment on A549 cells of under 0.1 µM.
On to `CC(C)(O)c1ccc(CNC(=O)c2cn(CC(F)CCn3ccc(NC(=O)CC4CCCCC4)c(F)c3=O)nn2)cn1` (centres unmarked) [Example 268, 1-{4-[4-(2-cyclohexylacetamido)-3-fluoro-2-oxo-1,2-dihydropyridin-1-yl]-2-fluorobutyl}-N-{[6-(2-hydroxypropan-2-yl)pyridin-3-yl]methyl}-1H-1,2,3-triazole-4-carboxamide], for which the IC50 in experiment [1] was under 0.1 µM. The same compound registered an EC50 with A549 cells of 0.1 to 0.5 µM.
Turning to `O=C(CN1CCCCC1)Nc1ccn(CCC(F)Cn2cc(C(=O)NCc3cccc(OC(F)(F)F)c3)nn2)c(=O)c1` (centres unmarked) [Example 269, 1-(2-fluoro-4-{2-oxo-4-[2-(piperidin-1-yl)acetamido]-1,2-dihydropyridin-1-yl}butyl)-N-{[3-(trifluoromethoxy)phenyl]methyl}-1H-1,2,3-triazole-4-carboxamide], the IC50 in experiment [1] was under 0.1 µM. In the experiment with A549 cells, this compound registered an EC50 of under 0.1 µM.
On to `O=C(CN1CCCC1)Nc1ccn(CCC(F)Cn2cc(C(=O)NCc3cccc(OC(F)(F)F)c3)nn2)c(=O)c1` (centres unmarked) [Example 270, 1-(2-fluoro-4-{2-oxo-4-[2-(pyrrolidin-1-yl)acetamido]-1,2-dihydropyridin-1-yl}butyl)-N-{[3-(trifluoromethoxy)phenyl]methyl}-1H-1,2,3-triazole-4-carboxamide], for which, in experiment [1], the IC50 lay in the range of 0.1 to 0.5 µM. In the experiment with A549 cells, this compound returned an EC50 of 0.5 to 5 µM.
On the same counts, the results for `CC(C)(C)OC(=O)N1CCN(CC(=O)Nc2ccn(CCC(F)Cn3cc(C(=O)NCc4cccc(OC(F)(F)F)c4)nn3)c(=O)c2)CC1` (centres unmarked) [Example 271, tert-butyl 4-{[(1-{3-fluoro-4-[4-({[3-(trifluoromethoxy)phenyl]methyl}carbamoyl)-1H-1,2,3-triazol-1-yl]butyl}-2-oxo-1,2-dihydropyridin-4-yl)carbamoyl]methyl}piperazine-1-carboxylate] are under 0.1 µM and under 0.1 µM.
In the case of `COCC1CCN(CC(=O)Nc2ccn(CCC(F)Cn3cc(C(=O)NCc4cccc(OC(F)(F)F)c4)nn3)c(=O)c2)CC1` (centres unmarked) [Example 272, 1-[2-fluoro-4-(4-{2-[4-(methoxymethyl)piperidin-1-yl]acetamido}-2-oxo-1,2-dihydropyridin-1-yl)butyl]-N-{[3-(trifluoromethoxy)phenyl]methyl}-1H-1,2,3-triazole-4-carboxamide], the IC50 in experiment [1] is under 0.1 µM. This compound showed a 50% effective concentration (EC50) in the experiment with A549 cells of 0.1 to 0.5 µM.
